Our source for the IC50 values is patent US20250122221A1 (NANJING ZAIMING PHARMACEUTICAL CO., LTD., priority 2022, published 2025).

Experiment [1] addresses N-terminal active peptide segment (MI-N899) of POLQ with ATPase activity (Homo sapiens (Human), UniProt O75417). The experiment can be described thus: POLQ enzyme activity inhibition experiment (ATPase, NADH-coupled, OD 340 nm). The class given is biochemical. The following applies: 100 nM POLQ (N), 100 μM ATP, 300 nM dT50.
Experiment [2] relates to DLD-1 BRCA2 (−/−) cells. The experiment can be described thus: Inhibition of tumour cell proliferation, 7 days, CTG. The experiment is classed as cell-based. The following applies: Homo sapiens, 168 h; DLD-1 BRCA2 (−/−) cells, 7 days of incubation, CTG; read-out: DLD-1 BRCA2 (−/−) IC50. As to the method:
(§1) Brief introduction to the experimental principle: The compounds were co-incubated with tumour cells for 7 days, and then a CTG kit from Promega Inc was used to quantify ATP in viable cells, thus reflecting the effect of the compounds on tumour cell proliferation.
(§2) Experimental method: DLD-1 parental cells or DLD-1 BRCA2 (−/−) cells were diluted with RPMI 1640 medium containing 10% FBS, and then added to a 96-well plate (90 μL/well), with the number of cells being 600 cells/well or 1200 cells/well, respectively, and cultured overnight in a 37° C., 5% CO2 incubator. The compounds to be tested were diluted to different concentrations in dimethyl sulfoxide (DMSO), and then added to a 96-well plate. The final concentration of the compounds in the reaction system started from 25 μM, and was subjected to 4-fold gradient dilution. The concentration range of the compounds was from 25 μM to 0.0004 μM, and the final concentration of DMSO was 0.25% v/v. After 7 days of incubation, 50 μL/well CTG was added, and the mixture was incubated at room temperature for 10 minutes. Subsequently, the luminescence (Lum) signal value was read with an Envision microplate reader, and the inhibition rate and half inhibitory concentration (IC50) were calculated.
(§3) The inhibition rate was calculated, and XLfit software was used to perform fitting to obtain IC50 of the compounds.
(§4) In the experiment, a blank well and a DMSO well were set up, respectively.
(§5) Inhibition rate=100*(Lummax−Lumcompound)/(Lummax−Lummin)%, • where Lummax refers to the luminescence signal value of the well containing cells and 0.25% v/v DMSO; Lumcompound refers to the luminescence signal value of the well containing the compound and cells; and Lummin refers to the luminescence signal value of the well containing the medium and 0.25% v/v DMSO.

The test system of experiment [3] is DLD-1 parental cells. Described as above. The class given is cell-based. The following applies: Homo sapiens, 168 h; DLD-1 parental cells, 7 days of incubation, CTG; read-out: DLD-1 parental cell IC50. As to the method:
as §1, §2, §3, §4, §5

N-terminal active peptide segment (MI-N899) of POLQ with ATPase activity, sequence (O75417 1-899 limits assumed): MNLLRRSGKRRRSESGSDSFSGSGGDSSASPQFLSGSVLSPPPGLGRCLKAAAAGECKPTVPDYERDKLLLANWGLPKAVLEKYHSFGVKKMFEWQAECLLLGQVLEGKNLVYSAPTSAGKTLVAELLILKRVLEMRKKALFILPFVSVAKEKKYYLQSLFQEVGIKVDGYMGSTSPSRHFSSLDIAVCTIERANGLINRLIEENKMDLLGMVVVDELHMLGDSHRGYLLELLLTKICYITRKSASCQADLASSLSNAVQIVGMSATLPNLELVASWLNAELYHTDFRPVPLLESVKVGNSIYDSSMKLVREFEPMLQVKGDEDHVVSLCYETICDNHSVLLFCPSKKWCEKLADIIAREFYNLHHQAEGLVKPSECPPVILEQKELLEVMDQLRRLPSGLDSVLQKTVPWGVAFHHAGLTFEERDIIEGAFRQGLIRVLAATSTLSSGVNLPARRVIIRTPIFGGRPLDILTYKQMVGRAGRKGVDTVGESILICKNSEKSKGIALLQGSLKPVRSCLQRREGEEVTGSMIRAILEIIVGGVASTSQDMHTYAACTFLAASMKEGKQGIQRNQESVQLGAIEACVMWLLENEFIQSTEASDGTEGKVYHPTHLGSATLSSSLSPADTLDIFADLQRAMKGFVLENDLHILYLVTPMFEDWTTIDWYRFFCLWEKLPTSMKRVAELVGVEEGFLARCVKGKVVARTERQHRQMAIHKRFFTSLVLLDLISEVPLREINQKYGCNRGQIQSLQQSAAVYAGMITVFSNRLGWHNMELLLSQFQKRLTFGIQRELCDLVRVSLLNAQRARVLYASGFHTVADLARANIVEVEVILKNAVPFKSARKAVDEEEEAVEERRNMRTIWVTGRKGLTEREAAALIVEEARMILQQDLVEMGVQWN

In the case of `Cc1cc(-c2cc(C)ncc2C(=O)Nc2nc3ncc(-c4ccc(C#N)cc4)nc3s2)c(OC(F)F)cn1` [Compound 74, N-(6-(4-cyanophenyl)thiazolo[4,5-b]pyrazin-2-yl)-5′-(difluoromethoxy)-2′,6-dimethyl-[4,4′-bipyridine]-3-carboxamide], the IC50 was less than 100 nM in experiment [1], less than 200 nM in experiment [2] and greater than 10000 nM in experiment [3].
